Article PMC9964544, “Evidence of Insulin-Sensitizing and Mimetic Activity of the Sesquiterpene Quinone Avarone, a Protein Tyrosine Phosphatase 1B and Aldose Reductase Dual Targeting Agent from the Marine Sponge Dysidea avara” (Pharmaceutics, 2023)
Entries after “also recorded” stand apart in the source; their conditions may differ.

What was measured:
[1] = target: T1, human recombinant AKR1B1 (Homo sapiens, UniProt P15121); assay: Kinetic characterization and reversibility of AKR1B1 inhibition (Morrison equation, tight binding); assay type: biochemical
T1 construct: made in house
Description: AKR1B1 activity measurements obtained at each substrate concentration were fitted by nonlinear regression analysis to the Morrison equation reported below (Equation (1)). (1) vi=1−([ET]+[I]+Kiapp)−([ET]+[I]+Kiapp)^2−4[ET][I]/2[ET]
This allowed the evaluation of Kiapp . In order to obtain the inhibition constants Ki (dissociation constant of the EI complex) and Ki′ , (dissociation constant of the EIS complex), the Kiapp values were plotted against substrate concentration and fitted by nonlinear regression analysis to the following equation:(2) Kiapp=([S]+ KM)/(KM/Ki+[S]/Ki′)
Panel A: the activity of the purified enzyme (10 mU) was measured at the indicated concentrations of avarone in the presence of the indicated L-idose concentrations. (B) Experimental data reported in (A) were fitted to the Morrison equation (see Materials and methods, Equation (1)).

[2] = system: C2C12 cells; assay: Glucose uptake assay (2-NBDG, flow cytometry) in C2C12 cells; assay type: cell-based; conditions: 30 min
Protocol: To evaluate the impact of avarone (2) on the insulin signaling pathway, C2C12 cells were plated on P35 dishes and grown until 70% confluence. Then, cells were washed with phosphate-buffered saline (PBS) and incubated for 24 h in the presence of a starvation medium (DMEM high glucose containing 2 mM glutamine, 100 U/mL of penicillin, and 100 μg/mL of streptomycin). After this time, cells were stimulated for 30 min with 10 nM insulin (Humulin R, Ely Lilly, Italy) with avarone (2) or the insulin-avarone combination. After this time, cells were washed with cold PBS and lysed using 100 µL of 1X Laemmli sample buffer solution (50 mM Tris-HCl pH 6.8, 2% SDS, 10% glycerol, 1% β-mercaptoethanol, 12.5 mM EDTA, 0.02% bromophenol blue). Cell proteins were withdrawn, transferred in an Eppendorf tube and boiled for 5 min. All samples were stored at −20 °C before the analysis. Analysis of samples was carried out using SDS-PAGE; after electrophoresis, proteins were transferred on a PVDF membrane by Western blot. Phosphorylation levels of the insulin receptor β chain and of the kinase Akt were evaluated using specific antibodies: IR β subunit, clone CT-3 (MABS65) was from Santa Cruz Biotechnology (Santa Cruz, CA, USA); pIR β subunit, Y1162/1163 (sc-25103-R) was from Merck-Millipore (Burlington, MA, USA). Akt (9272S) and p-Akt (9271S) antibodies were from Cell Signaling Technology (Danvers, MA, USA). Finally, β-actin and clone C-4 (sc-47778) were from Merck-Millipore (Burlington, MA, USA). Anti-rabbit and anti-mouse secondary antibodies were from Santa Cruz Biotechnology (Santa Cruz, CA, USA). Detection was performed using Clarity western ECL substrates (BioRad Laboratories, Inc. 1000 Alfred Nobel DriveHercules, CA, USA). Quantitation of the images obtained was carried out using iBright Analysis Software (Thermo Fisher Scientific 168 Third Avenue Waltham, MA, USA, 02451). Glucose uptake was evaluated as previously described. […] Intrinsic and 2-NBDG-derived cell fluorescences were determined using a flow cytometer (FACSCanto II, BD Biosciences, San Jose, CA, USA). […] Quantitative analysis was carried out using FlowJo software (FlowJo^TM v10. BD FlowJo™ Software for Windows Version 10. Ashland, OR: Becton, Dickinson and Company; 2021).
Figure 8 Glucose uptake assay. […] After, cells were washed with PBS, detached using trypsin, collected by centrifugation, and analyzed using a flow cytometer (FACSCanto II, BD Biosciences). […] For each experiment, 10,000 events were analyzed. […] (B) Quantitation of fluorescence levels. […]
Figure 9 Impact of cytochalasin B on avarone-induced glucose uptake. […] After, cells were washed and incubated for 3 h with 40 µM 2-NBDG and then analyzed using a flow cytometer (FACSCanto II, BD Biosciences). For each experiment, 10,000 events were analyzed. […]

[3] = target: T2, Human PTP1B (Homo sapiens, UniProt P18031); assay: Kinetic analysis of PTP1B inhibition (Lineweaver-Burk plot, KM,app fit, dilution assay); conditions: for Ki: fit of KM,app against avarone concentration, Equation (3)
T2 sequence (P18031 1-302): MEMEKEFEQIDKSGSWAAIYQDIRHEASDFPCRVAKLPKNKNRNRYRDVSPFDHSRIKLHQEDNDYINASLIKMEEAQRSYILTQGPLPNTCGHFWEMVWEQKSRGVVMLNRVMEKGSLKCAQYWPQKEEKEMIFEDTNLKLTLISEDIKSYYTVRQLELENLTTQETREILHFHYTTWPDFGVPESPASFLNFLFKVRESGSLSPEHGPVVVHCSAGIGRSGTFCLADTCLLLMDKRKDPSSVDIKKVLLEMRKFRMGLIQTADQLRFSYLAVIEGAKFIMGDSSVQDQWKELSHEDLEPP
Protocol: Equation (2) refers to a general case of a tight binding non-competitive inhibition model. […] The mechanism of action of avarone was evaluated by analyzing the effect of increasing avarone concentrations on the main kinetic parameters (KM and Vmax) of PTP1B. Data obtained were analyzed using the Lineweaver–Burk plot. The value of Ki was determined using the appropriate equations.
The second inhibitor molecule (IB) can only bind to EIA, generating the ternary complex (EIAIB). Considering the prevailing rapid equilibrium conditions, it was possible to derive Equation (3), which describes the dependence of KM on the avarone concentration. […] (3) KM,app=KM×{1+[I]/KiA+[I]^2/KiA×KiB}
Figure 4 Impact of avarone on PTP1B-catalyzed hydrolysis of pNPP: the Lineweaver–Burk plot. Data reported in the figure were obtained by measuring the initial hydrolysis rate of pNPP at seven different concentrations, in the presence of increasing concentration of avarone. The concentrations of avarone used were: 0 µM, (●); 4 µM, (☐); 5.5 µM, (▲); 7 µM (▽). Each test was carried out in triplicate. Data reported in the figure represent the mean value ± SD.
Figure 5 Determination of KiA and KiB for avarone. Dependence of KM,app from the avarone concentration. Data obtained were fitted using Equation (3). Data fitting was obtained using OriginPlus 2021 software.
Dilution assay. An aliquot of PTP1B was incubated for 1 h at 37°C in the
presence of saturating concentration (50 µM) of avarone (2). A control test was prepared
diluting PTP1B solution with the same volume of DMSO, the solvent used to dissolve 2.
After 1 h, an aliquot of samples was withdrawn and diluted 400 fold in buffer assay to
evaluate the residual activity of the enzyme. All tes ts were carried out in triplicate. Data
obtained were normalized respect to control sample.
Dependence of K M and Vmax from avarone (2) concentration. The concentration
of avarone used were: 0, 4.0, 5.5, and 7.0 µM. To calculate both K M and Vmax valued, we
determined the initial hydrolysis rate at seven different substrate (pNPP) concentrations
(0.5, 1, 2 4, 8 16 , 25 mM). Experimental data were fitted with Michaelis -Menten equation
using OriginPro 2021 software

CC1=CCC[C@H]2[C@](C)(CC3=CC(=O)C=CC3=O)[C@@H](C)CC[C@]12C [avarone (2), avarone]
type of AKR1B1 inhibition [1]: “tight binding” inhibitor; also recorded: non-competitive mixed-type inhibitor | Ki' (dissociation constant of the EIS complex) AKR1B1 ([1]; L-idose substrate, tight binding non-competitive model): 0.055 ± 0.008 µM | Ki ([1]; L-idose substrate, tight binding non-competitive model, read-out: Ki (dissociation constant of the EI complex) AKR1B1): 0.41 ± 0.094 µM | glucose uptake (2-NBDG fluorescence), insulin-avarone combination ([2]; 25 µM avarone + 10 nM insulin, versus insulin alone): significantly increase | glucose uptake (2-NBDG fluorescence) ([2]; 25 µM avarone alone, then 40 µM 2-NBDG 3 h): higher amounts of fluorescent glucose; also recorded: stimulates glucose uptake more efficiently than insulin itself | reversibility of PTP1B inhibition (dilution assay) ([3]; 50 µM avarone, 1 h at 37°C, diluted 400 fold): reversible inhibitor | Ki ([3]; KiA PTP1B (first inhibitor molecule)): 15.1 ± 1.4 µM | Ki ([3]; KiB PTP1B (second inhibitor molecule, binds EIA)): 1 ± 0.1 µM | type of PTP1B inhibition ([3]; pNPP, 0-7 µM avarone, double reciprocal plot): competitive inhibitor; also recorded: cooperative pure competitive inhibition by two non-exclusive inhibitor molecules
